Data as given in patent US20200369626A1 (Washington University, priority 2019, published 2020).

Biological target: T1, S1PR2 (Homo sapiens, UniProt O95136)
T1 construct: purchased
Experiment: competitive [^32P]S1P binding assay on cell membranes, S1PR2
Details: IC50 S1PR2, Table 5
Procedure: The test compounds were dissolved in DMSO and diluted into test samples with increasing concentrations with assay buffer. Commercial cell membranes expressing recombinant human S1PR were diluted with assay buffer to make a 20-40 μg/mL of solution. […] The plate was incubated for 60 min at room temperature with shaking and terminated by collecting the membranes onto 96-well glass fiber (GF/B) filtration plates (Millipore, Billerica, Mass.). Each filter was washed with 200 μL of assay buffer for a total of five washes. […] The IC50 values were fitted from GraphPad Prism 6 using one site Nonlinear Regression.

T1 sequence (O95136 whole entry): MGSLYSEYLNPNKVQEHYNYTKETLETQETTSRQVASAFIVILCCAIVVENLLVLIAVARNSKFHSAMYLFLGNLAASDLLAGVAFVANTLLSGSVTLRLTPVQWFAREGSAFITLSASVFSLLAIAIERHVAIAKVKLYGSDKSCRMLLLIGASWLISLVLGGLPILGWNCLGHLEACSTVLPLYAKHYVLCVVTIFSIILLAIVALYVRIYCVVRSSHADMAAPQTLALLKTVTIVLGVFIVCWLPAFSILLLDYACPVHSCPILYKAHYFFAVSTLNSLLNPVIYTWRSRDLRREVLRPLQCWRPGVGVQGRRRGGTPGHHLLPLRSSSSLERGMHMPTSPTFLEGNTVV

Structure (SMILES) | IC50
CNC(=O)c1ccc(Oc2cc(NC(=O)N3CCC(=O)CC3)cc(C(F)(F)F)c2)cc1 [TZ51-020] | > 1 µM
CNC(=O)c1ccc(Oc2cc(NC(=O)N3CCC4(CC3)OCCO4)cc(C(F)(F)F)c2)cc1 [TZ51-022] | > 1 µM

Same assay, conditions: Table 5; read-out: IC50 S1PR2

Structure (SMILES) | IC50
CCC(CC)CC1(O)CCN(C(=O)Nc2cc(Oc3ccc(C(=O)NC)cc3)c3c(c2)oc2ccc(F)cc23)CC1 [TZ51-011] | 0.472 ± 0.244 µM
CCC(CC)CC1(O)CCN(C(=O)Nc2cc(Oc3ccc(C(=O)NC)cc3)cc(C(F)(F)F)c2)CC1 [TZ51-018] | > 1 µM
CNC(=O)c1ccc(Oc2cc(NC(=O)N3CCOCC3)cc(C(F)(F)F)c2)cc1 [TZ51-019] | > 1 µM
CNC(=O)c1ccc(Oc2cc(NC(=O)N3CCC(O)CC3)cc(C(F)(F)F)c2)cc1 [TZ51-041] | > 1 µM
CNC(=O)c1ccc(Oc2cc(NC(=O)N3CCC(O)(C(C)C)CC3)cc(C(F)(F)F)c2)cc1 [TZ51-044] | > 1 µM
CC(C)C1(O)CCN(C(=O)Nc2cc(Oc3ccc(S(C)(=O)=O)cc3)cc(C(F)(F)F)c2)CC1 [TZ51-045] | > 1 µM
CCC1(O)CCN(C(=O)Nc2cc(Oc3ccc(C(=O)NC)cc3)cc(C(F)(F)F)c2)CC1 [TZ51-046] | > 1 µM
CCC1(O)CCN(C(=O)Nc2cc(Oc3ccc(S(C)(=O)=O)cc3)cc(C(F)(F)F)c2)CC1 [TZ51-047] | > 1 µM
CNC(=O)c1ccc(Oc2cc(NC(=O)N3CCC(C)(O)CC3)cc(C(F)(F)F)c2)cc1 [TZ51-057] | > 1 µM
CC1(O)CCN(C(=O)Nc2cc(Oc3ccc(S(C)(=O)=O)cc3)cc(C(F)(F)F)c2)CC1 [TZ51-058] | > 1 µM
COc1ccc(Oc2cc(NC(=O)N3CCC(O)(C(C)C)CC3)cc(C(F)(F)F)c2)cc1 [TZ51-059] | > 1 µM
CC(C)C1(O)CCN(C(=O)Nc2cc(Oc3ccncc3)cc(C(F)(F)F)c2)CC1 [TZ51-061] | > 1 µM
CC(C)CC1(O)CCN(C(=O)Nc2cc(Oc3ccc(C(=O)O)cc3)cc(C(F)(F)F)c2)CC1 [TZ51-073] | > 1 µM
CC(C)CC1(O)CCN(C(=O)Nc2cc(Oc3ccc(C(=O)N(C)C)cc3)cc(C(F)(F)F)c2)CC1 [TZ51-095] | > 1 µM
CC(C)CC1(O)CCN(C(=O)Nc2cc(Oc3ccc(C(N)=O)cc3)cc(C(F)(F)F)c2)CC1 [TZ51-096] | > 1 µM
CNC(=O)c1ccc(Oc2cc(NC(=O)N3CC(O)(CC(C)C)C3)cc(C(F)(F)F)c2)cc1 [TZ51-097] | > 1 µM
CNC(=O)c1ccc(Oc2cc(NC(=O)N3CCC(O)(CC(C)C)CC3)cc(C(F)(F)F)c2)cc1 [TZ51-108] | > 1 µM
CNC(=O)c1ccc(Oc2cc(NC(=O)N3CC(N4CCN(C)CC4)C3)cc(C(F)(F)F)c2)cc1 [TZ51-112] | > 1 µM
CNC(=O)c1ccc(Sc2cc(NC(=O)N3CCC(O)(CC(C)C)CC3)cc(C(F)(F)F)c2)cc1 [TZ51-121] | 0.421 ± 0.09 µM
CCC(CC)CC1(O)CCN(C(=O)Nc2cc(OCCCF)cc(Oc3ccc(C(=O)NC)cc3)c2)CC1 [TZ51-133] | > 1 µM
CCC(CC)CC1(O)CCN(C(=O)Nc2cc(OCCCF)cc(Oc3ccc(F)cc3)c2)CC1 [TZ51-139] | > 1 µM
CCC(CC)CC1(O)CCN(C(=O)Nc2cc(OCCF)cc(Oc3ccc(F)cc3)c2)CC1 [TZ51-149] | > 1 µM
CCC(CC)CC1(O)CCN(C(=O)Nc2nc(Oc3ccc(F)cc3)nc(Oc3ccc(F)cc3)n2)CC1 [TZ51-150] | > 1 µM
CCC(CC)CC1(O)CCN(C(=O)Nc2nc(Oc3ccc(F)cc3)cc(Oc3ccc(F)cc3)n2)CC1 [TZ57-007] | > 1 µM
CCC(CC)CC1(O)CCN(C(=O)Nc2cc(Oc3ccc(F)cc3)cc(N3CCN(C)CC3)c2)CC1 [TZ57-013] | > 1 µM
CCC(CC)CC1(O)CCN(C(=O)Nc2cc(Oc3ccc(F)cc3)cc(-n3cccn3)c2)CC1 [TZ57-016] | > 1 µM
CC(C)CC1(O)CCN(C(=O)Nc2cc(Oc3ccc(S(C)(=O)=O)cc3)cc(Oc3ccc(F)nc3)c2)CC1 [TZ57-040] | 0.211 ± 0.032 µM
CCC(CC)CC1(O)CCN(C(=O)Nc2cc(Oc3ccc(S(C)(=O)=O)cc3)cc(Oc3ccc(F)nc3)c2)CC1 [TZ57-041] | 0.198 ± 0.045 µM

Same assay, conditions: [^32P]S1P competition, IC50 ± SD, Table 1 (2a-l, 4a-h); read-out: IC50 (binding potency toward S1PR2)

Structure (SMILES) | IC50
COc1cccc(NC(=O)Cn2c(=O)c3ccccc3n(CC(=O)Nc3cc(Cl)c(OC)cc3OC)c2=O)c1 [Compound 2b] | 0.0391 ± 0.007 µM
COc1cc(OC)c(NC(=O)Cn2c(=O)n(CC(=O)NCCc3cccnc3)c(=O)c3ccccc32)cc1Cl [Compound 2f] | 0.0587 ± 0.009 µM
COc1cc(OC)c(NC(=O)Cn2c(=O)n(CC(=O)Nc3cc(Cl)nc(Cl)c3)c(=O)c3ccccc32)cc1Cl [Compound 2g] | > 1 µM
COc1cc(OC)c(NC(=O)Cn2c(=O)n(CC(=O)NCCOCCO)c(=O)c3ccccc32)cc1Cl [Compound 2i] | 0.0914 ± 0.0176 µM
CNC(=O)Cn1c(=O)c2ccccc2n(CC(=O)Nc2cc(Cl)c(OC)cc2OC)c1=O [Compound 2k] | 0.376 ± 0.091 µM
COc1cc(OC)c(NC(=O)Cn2c(=O)n(CC(=O)N(C)C)c(=O)c3ccccc32)cc1Cl [Compound 2l] | 0.175 ± 0.013 µM

Same assay, conditions: [^32P]S1P competition, IC50 ± SD, second Table 1; read-out: S2PR2 IC50

Structure (SMILES) | IC50
CCC(CC)CC1(O)CCN(C(=O)Nc2cc(OCCF)cc(Oc3ccc(F)cc3)c2)CC1 [Compound 11a, 4-(2-Ethylbutyl)-N-(3-(2-fluoroethoxy)-5-(4-fluorophenoxy)phenyl)-4-hydroxypiperidine-1-carboxamide] | > 1 µM
CCC(CC)CC1(O)CCN(C(=O)Nc2cc(OCCCF)cc(Oc3ccc(F)cc3)c2)CC1 [Compound 11b, 4-(2-Ethylbutyl)-N-(3-(4-fluorophenoxy)-5-(3-fluoropropoxy)phenyl)-4-hydroxypiperidine-1-carboxamide] | > 1 µM
CCC(CC)CC1(O)CCN(C(=O)Nc2cc(Oc3ccc(F)cc3)cc(N3CCN(C)CC3)c2)CC1 [Compound 17a, 4-(2-Ethylbutyl)-N-(3-(4-fluorophenoxy)-5-(4-methylpiperazin-1-yl)phenyl)-4-hydroxypiperidine-1-carboxamide] | > 1 µM
CCC(CC)CC1(O)CCN(C(=O)Nc2cc(Oc3ccc(F)cc3)cc(-n3cccn3)c2)CC1 [Compound 17b, 4-(2-Ethylbutyl)-N-(3-(4-fluorophenoxy)-5-(1H-pyrazol-1-yl)phenyl)-4-hydroxypiperidine-1-carboxamide] | > 1 µM
CCC(CC)CC1(O)CCN(C(=O)Nc2cc(Oc3ccc(C(=O)NC)cc3)cc(C(F)(F)F)c2)CC1 [Compound 21c, 4-(2-Ethylbutyl)-4-hydroxy-N-(3-(4-(methylcarbamoyl)-phenoxy)-5 (trifluoromethyl)phenyl)piperidine-1-carboxamide] | 0.279 µM
CNC(=O)c1ccc(Oc2cc(NC(=O)N3CCC(C)(O)CC3)cc(C(F)(F)F)c2)cc1 [Compound 25a, 4-Hydroxy-4-methyl-N-(3-(4-(methylcarbamoyl)phenoxy)-5-(trifluoromethyl)phenyl)piperidine-1-carboxamide] | > 1 µM
CC1(O)CCN(C(=O)Nc2cc(Oc3ccc(S(C)(=O)=O)cc3)cc(C(F)(F)F)c2)CC1 [Compound 25b, 4-Hydroxy-4-methyl-N-(3-(4-(methylsulfonyl)phenoxy)-5-(trifluoromethyl)phenyl)piperidine-1-carboxamide] | > 1 µM
CCC1(O)CCN(C(=O)Nc2cc(Oc3ccc(C(=O)NC)cc3)cc(C(F)(F)F)c2)CC1 [Compound 25c, 4-Ethyl-4-hydroxy-N-(3-(4-(methylcarbamoyl)phenoxy)-5-(trifluoromethyl)phenyl)piperidine-1-carboxamide] | > 1 µM
CCC1(O)CCN(C(=O)Nc2cc(Oc3ccc(S(C)(=O)=O)cc3)cc(C(F)(F)F)c2)CC1 [Compound 25d, 4-Ethyl-4-hydroxy-N-(3-(4-(methylsulfonyl)phenoxy)-5-(trifluoromethyl)phenyl)piperidine-1-carboxamide] | > 1 µM
CNC(=O)c1ccc(Oc2cc(NC(=O)N3CCC(O)(C(C)C)CC3)cc(C(F)(F)F)c2)cc1 [Compound 25e, 4-Hydroxy-4-isopropyl-N-(3-(4-(methylcarbamoyl)phenoxy)-5-(trifluoromethyl)phenyl)piperidine-1-carboxamide] | > 1 µM
CC(C)C1(O)CCN(C(=O)Nc2cc(Oc3ccc(S(C)(=O)=O)cc3)cc(C(F)(F)F)c2)CC1 [Compound 25f, 4-Hydroxy-4-isopropyl-N-(3-(4-(methylsulfonyl)phenoxy)-5-(trifluoromethyl)phenyl)piperidine-1-carboxamide] | > 1 µM
CNC(=O)c1ccc(Oc2cc(NC(=O)N3CCC(O)(CC(C)C)CC3)cc(C(F)(F)F)c2)cc1 [Compound 25g, 4-Hydroxy-4-isobutyl-N-(3-(4-(methylcarbamoyl)phenoxy)-5-(trifluoromethyl)phenyl)piperidine-1-carboxamide] | 0.359 µM
CC(C)CC1(O)CCN(C(=O)Nc2cc(Oc3ccc(S(C)(=O)=O)cc3)cc(C(F)(F)F)c2)CC1 [Compound 25h, 4-Hydroxy-4-isobutyl-N-(3-(4-(methylsulfonyl)phenoxy)-5-(trifluoromethyl)phenyl)piperidine-1-carboxamide] | 0.296 µM
CNC(=O)c1ccc(Oc2cc(NC(=O)N3CC(O)(CC(C)C)C3)cc(C(F)(F)F)c2)cc1 [Compound 25i, 3-Hydroxy-3-isobutyl-N-(3-(4-(methylcarbamoyl)phenoxy)-5-(trifluoromethyl)phenyl)azetidine-1-carboxamide] | > 1 µM

Same assay, conditions: [^32P]S1P competition; read-out: IC50 value, S1PR2 binding

Structure (SMILES) | IC50
COc1cc(OC)c(NC(=O)Cn2c(=O)n(CC(=O)Nc3ccc(O)cc3)c(=O)c3ccccc32)cc1Cl [Compound 2e] | 0.0026 ± 0.0003 µM
CCC(CC)CC1(O)CCN(C(=O)Nc2cc(OCCF)cc(Oc3ccc(F)cc3)c2)CC1 [Compound 11a, 4-(2-Ethylbutyl)-N-(3-(2-fluoroethoxy)-5-(4-fluorophenoxy)phenyl)-4-hydroxypiperidine-1-carboxamide] | > 1 µM
CCC(CC)CC1(O)CCN(C(=O)Nc2cc(OCCCF)cc(Oc3ccc(F)cc3)c2)CC1 [Compound 11b, 4-(2-Ethylbutyl)-N-(3-(4-fluorophenoxy)-5-(3-fluoropropoxy)phenyl)-4-hydroxypiperidine-1-carboxamide] | > 1 µM
CN1CCN(c2cc(Oc3ccc(F)cc3)cc([N+](=O)[O-])c2)CC1 [Compound 15a, 1-(3-(4-Fluorophenoxy)-5-nitrophenyl)-4-methylpiperazine] | > 1 µM
O=[N+]([O-])c1cc(Oc2ccc(F)cc2)cc(-n2cccn2)c1 [Compound 15b, 1-(3-(4-Fluorophenoxy)-5-nitrophenyl)-1H-pyrazole] | > 1 µM
CCC(CC)CC1(O)CCN(C(=O)Nc2cc(Oc3ccc(S(C)(=O)=O)cc3)cc(C(F)(F)F)c2)CC1 [Compound 21f, 4-(2-Ethylbutyl)-4-hydroxy-N-(3-(4-(methylsulfonyl)phenoxy)-5-(trifluoromethyl)phenyl)piperidine-1-carboxamide] | 0.27 µM
CNC(=O)c1ccc(Oc2cc(NC(=O)N3CC(O)(CC(C)C)C3)cc(C(F)(F)F)c2)cc1 [Compound 25i, 3-Hydroxy-3-isobutyl-N-(3-(4-(methylcarbamoyl)phenoxy)-5-(trifluoromethyl)phenyl)azetidine-1-carboxamide] | > 1 µM
